Experimental data from ChEMBL document CHEMBL1201862, “PubChem BioAssay data set” (2004).
The source made the active and inactive calls.

Legend:
[1] = target: Aryl hydrocarbon receptor (Homo sapiens, UniProt P35869); conditions: Potency;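 further: confirmatory quantitative high-throughput screen measuring activation of the AhR signaling pathway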
[2] = target: T1, Apoptotic protease-activating factor 1 (Homo sapiens, UniProt O14727); assay: SAR analysis of small molecule Activators of Apaf-1 in a Fluorescent assay.; type: functional; conditions: read-out: EC50_Mean;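 further: caspase-3 cleavage of fluorogenic Rh110 DEVD substrate downstream of apoptosome activation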
T1 sequence (O14727 whole entry): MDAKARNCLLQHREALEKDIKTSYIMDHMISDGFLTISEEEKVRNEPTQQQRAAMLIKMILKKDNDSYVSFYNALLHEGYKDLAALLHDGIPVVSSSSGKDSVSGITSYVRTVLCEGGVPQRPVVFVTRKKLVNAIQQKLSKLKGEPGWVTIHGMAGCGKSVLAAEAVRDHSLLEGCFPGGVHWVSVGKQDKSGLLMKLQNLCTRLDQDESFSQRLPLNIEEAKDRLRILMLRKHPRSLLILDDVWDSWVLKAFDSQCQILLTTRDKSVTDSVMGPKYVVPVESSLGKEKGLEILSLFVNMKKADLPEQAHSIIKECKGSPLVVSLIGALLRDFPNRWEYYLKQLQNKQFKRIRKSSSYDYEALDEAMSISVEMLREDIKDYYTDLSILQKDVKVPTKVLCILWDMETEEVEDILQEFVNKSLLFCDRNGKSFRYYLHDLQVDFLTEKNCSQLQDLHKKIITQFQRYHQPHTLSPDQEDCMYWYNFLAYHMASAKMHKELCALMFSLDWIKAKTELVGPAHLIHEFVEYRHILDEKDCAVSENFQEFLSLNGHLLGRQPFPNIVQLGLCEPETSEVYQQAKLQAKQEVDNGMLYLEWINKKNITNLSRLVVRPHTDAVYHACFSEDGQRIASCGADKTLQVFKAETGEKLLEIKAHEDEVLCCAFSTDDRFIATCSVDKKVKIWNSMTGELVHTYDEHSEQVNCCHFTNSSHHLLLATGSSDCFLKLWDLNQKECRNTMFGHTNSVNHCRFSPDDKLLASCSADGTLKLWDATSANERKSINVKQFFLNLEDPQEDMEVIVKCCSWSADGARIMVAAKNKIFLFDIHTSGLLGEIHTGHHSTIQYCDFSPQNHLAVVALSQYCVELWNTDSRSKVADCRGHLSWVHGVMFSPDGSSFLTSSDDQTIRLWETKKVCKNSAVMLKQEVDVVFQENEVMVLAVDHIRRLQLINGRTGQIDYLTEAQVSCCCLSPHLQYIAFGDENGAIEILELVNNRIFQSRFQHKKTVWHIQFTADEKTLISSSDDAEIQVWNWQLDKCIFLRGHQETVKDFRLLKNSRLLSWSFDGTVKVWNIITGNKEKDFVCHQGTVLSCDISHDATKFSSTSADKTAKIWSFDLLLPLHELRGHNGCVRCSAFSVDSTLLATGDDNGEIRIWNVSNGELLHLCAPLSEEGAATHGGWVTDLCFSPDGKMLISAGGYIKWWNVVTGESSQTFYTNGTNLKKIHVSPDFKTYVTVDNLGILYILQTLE

[3] = inhibitors of SNCA 5'UTR-driven reporter translation, confirmation, H4 neuroglioma cells, luminescence (AID 1988); type: functional, cell-based
Interleukin-8 [4] = target: T2, Interleukin-8 (Homo sapiens, UniProt P10145); assay: Dose Response confirmation of uHTS small molecule hits for cystic fibrosis induced NFkb Inhibitors in a TNFa-induced IL8 counterscreen.; type: functional; conditions: read-out: IC50_Mean
[5] = test system: Streptococcus sp. 'group A'; assay: growth inhibition of control SK(-) GAS strain, dose response, counter-screen for streptokinase expression inhibitor project, luminescence, kanamycin, BacTiterGlo, confirmation (AID 1900); type: functional, organism-based
[6] = miR-122 activators in hepatoma reporter cells, dose response, cell-based, Huh7 psiCHECK-miR122, Renilla luciferase, cherry-picked (AID 651956); type: functional;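 further: huh7 hepatoma cells stably carrying a psiCHECK-2 miR-122 sensor plasmid; renilla luciferase signal reporting endogenous miR-122 activity after 48 h compound exposure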
Interleukin-8 [7] = target: T2, Interleukin-8; assay: Dose Response confirmation of uHTS small molecule hits for cystic fibrosis induced NFkb Inhibitors in a PAF-induced IL8 counterscreen.; type: functional; conditions: read-out: IC50_Mean
Paired box protein Pax-8 = Paired box protein Pax-8 (Homo sapiens, UniProt Q06710); assay: inhibitors of PAX8-driven TPO luciferase reporter, dose response, RMG-I cells, cherry-pick (AID 687027); type: functional, cell-based;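 further: luciferase reporter driven by Pax8 target thyroperoxidase promoter measured by SteadyGlo luminescence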
[8] = inhibitors of firefly luciferase expression or activity, dose response, H4 neuroglioma cells, luminescence (AID 1990); type: functional, cell-based
INS1 = assay: beta cell apoptosis inhibitors, cytokine rescue, dose response, luminescence, retest (AID 449756); type: functional, cell-based; conditions: Rattus norvegicus;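 further: cell death triggered by IL-1 beta plus TNF-alpha plus IFN-gamma mixture; protective hits raise ATP signal compared with cytokine alone wells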
Melanocortin receptor 4 = Melanocortin receptor 4 (Homo sapiens, UniProt P32245); type: functional, cell-based;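 further: Cell-based assay with luminescence read-out, confirmatory dose-response testing for agonist activity of biased ligands at MC4R; human U2OS cells with tagged receptor and beta-arrestin; potency of agonists that increase receptor coupling to beta-arrestin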
[9] = HEK293T cytotoxicity, dose response, cytotoxicity control for miR-122 modulator project, cell-based, activator set, cherry-pick (AID 720690); type: functional;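 further: HEK293T human cells scored for general mammalian cytotoxicity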
[10] = target: T3, Ubiquitin-conjugating enzyme E2 N (Homo sapiens, UniProt P61088); type: functional;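 further: Dose-response confirmation in a TR-FRET assay detecting UBC13-driven polyubiquitin chain formation, inhibition measured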
T3 sequence (P61088 whole entry): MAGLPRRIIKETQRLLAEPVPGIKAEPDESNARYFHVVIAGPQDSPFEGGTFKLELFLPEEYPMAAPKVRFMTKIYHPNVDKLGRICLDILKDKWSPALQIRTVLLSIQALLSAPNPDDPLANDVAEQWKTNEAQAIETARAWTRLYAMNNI

[11] = target: Long-chain-fatty-acid--AMP ligase FadD28 (Mycobacterium tuberculosis, UniProt P9WQ59); assay: Fluorescence polarization aasay to screen for inhibitors that compete for the binding of FadD28 to a bisubstrate Measured in Biochemical System Using Plate Reader - 2147-01_Inhibitor_Dose_CherryPick_Activity.; type: functional, Mycobacterium tuberculosis H37Rv
[12] = HEK293T cytotoxicity, dose response, cytotoxicity control for miR-122 modulator project, cell-based, inhibitor set, cherry-pick, set 2 (AID 720697); type: functional
Streptococcus = assay: Group A Streptococcus viability loss, dose response, counter-screen for streptokinase expression inhibitor project, luminescence, BacTiterGlo (AID 1915); type: functional, organism-based;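 further: potency for reduction of bacterial viability or growth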
[13] = Luminescence Cell-Based Dose Response HTS to Identify Inhibitors of 5'UTR Stem-Loop Driven Prion Protein mRNA Translation in H4 Neuroglioblastoma Cells. [Related pubchem assays: 1827 (Project Summary), 1813 (Primary HTS)]; type: functional
[14] = non-specific cell cytotoxicity, dose response, cytotoxicity control for PAX8 inhibitor project, plate reader, dry powder samples (AID 743021); type: functional, cell-based
Streptokinase A = target: T4, Streptokinase A (Streptococcus pyogenes serotype M1, UniProt P10520); assay: S. pyogenes streptokinase expression inhibitors, potency, dose response, plasminogen activation absorbance, OD405 (AID 1914); type: functional, Streptococcus pyogenes M1 GAS;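 further: secreted streptokinase activity via plasminogen activation per viability signal from cell pellet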
T4 sequence (P10520 whole entry): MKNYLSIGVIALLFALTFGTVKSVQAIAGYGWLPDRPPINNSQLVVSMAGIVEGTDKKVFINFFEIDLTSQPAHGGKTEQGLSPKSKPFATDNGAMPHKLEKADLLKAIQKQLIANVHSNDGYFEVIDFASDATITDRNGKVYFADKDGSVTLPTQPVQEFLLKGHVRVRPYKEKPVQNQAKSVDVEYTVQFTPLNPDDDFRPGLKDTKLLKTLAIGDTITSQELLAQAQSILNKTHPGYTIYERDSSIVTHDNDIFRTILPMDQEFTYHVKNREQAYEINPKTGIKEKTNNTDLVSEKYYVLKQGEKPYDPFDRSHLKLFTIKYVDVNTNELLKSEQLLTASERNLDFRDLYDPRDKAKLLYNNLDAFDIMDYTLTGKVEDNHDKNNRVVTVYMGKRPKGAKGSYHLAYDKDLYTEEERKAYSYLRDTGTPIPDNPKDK

[15] = target: Neuropeptides B/W receptor type 1 (Homo sapiens, UniProt P48145); assay: GPR7 antagonist potency, late-stage follow-up, cell-based, fluorescence, dose response, set 5 (AID 588566); type: functional
[16] = target: Melanin-concentrating hormone receptor 1 (Homo sapiens, UniProt Q99705); assay: Late-stage fluorescence-based counterscreen for antagonists of the G-protein coupled receptor 7 (GPR7): cell-based dose response assay to identify antagonists of the melanin-concentrating hormone receptor 1 (MCHR1) Set 5.; type: functional
[17] = StAR promoter reporter inhibition counter-screen, dose response, counter-screen for LRH-1 inverse agonist project, cell-based, luminescence, luciferase reporter (AID 651969); type: functional
Steroidogenic factor 1 = Steroidogenic factor 1 (Homo sapiens, UniProt Q13285); assay: Counterscreen for inverse agonists of the liver receptor homolog-1 (LRH-1; NR5A2): Luminescence-based cell-based high throughput dose response assay to identify inverse agonists of the Steroidogenic Factor 1 Nuclear Receptor (SF1; NR5A1).; type: functional
[18] = target: Nuclear receptor subfamily 5 group A member 2 (Homo sapiens, UniProt O00482); type: functional, cell-based;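 further: HEK293T cells transfected with LRH-1 and a StAR promoter luciferase reporter; potency for inhibitors that lower LRH-1 driven reporter light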
[19] = target: ADP-ribosylation factor GTPase-activating protein 1 (Rattus norvegicus, UniProt Q62848); assay: Fluorescence polarization-based biochemical high throughput dose response screening assay to identify inhibitors of ADP-ribosylation factor GTPase activating protein 1 (ARFGAP1).; type: functional
[20] = target: Arf-GAP with SH3 domain, ANK repeat and PH domain-containing protein 1 (Homo sapiens, UniProt Q9ULH1); type: functional;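 further: biochemical fluorescence polarization dose–response screen measuring inhibition of ASAP1; ASAP1 GAP domain stimulating GTP hydrolysis by truncated human ARF1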
Arf-GAP with SH3 domain, ANK repeat and PH domain-containing protein 1, sequence (Q9ULH1 whole entry, the tested form may be a part): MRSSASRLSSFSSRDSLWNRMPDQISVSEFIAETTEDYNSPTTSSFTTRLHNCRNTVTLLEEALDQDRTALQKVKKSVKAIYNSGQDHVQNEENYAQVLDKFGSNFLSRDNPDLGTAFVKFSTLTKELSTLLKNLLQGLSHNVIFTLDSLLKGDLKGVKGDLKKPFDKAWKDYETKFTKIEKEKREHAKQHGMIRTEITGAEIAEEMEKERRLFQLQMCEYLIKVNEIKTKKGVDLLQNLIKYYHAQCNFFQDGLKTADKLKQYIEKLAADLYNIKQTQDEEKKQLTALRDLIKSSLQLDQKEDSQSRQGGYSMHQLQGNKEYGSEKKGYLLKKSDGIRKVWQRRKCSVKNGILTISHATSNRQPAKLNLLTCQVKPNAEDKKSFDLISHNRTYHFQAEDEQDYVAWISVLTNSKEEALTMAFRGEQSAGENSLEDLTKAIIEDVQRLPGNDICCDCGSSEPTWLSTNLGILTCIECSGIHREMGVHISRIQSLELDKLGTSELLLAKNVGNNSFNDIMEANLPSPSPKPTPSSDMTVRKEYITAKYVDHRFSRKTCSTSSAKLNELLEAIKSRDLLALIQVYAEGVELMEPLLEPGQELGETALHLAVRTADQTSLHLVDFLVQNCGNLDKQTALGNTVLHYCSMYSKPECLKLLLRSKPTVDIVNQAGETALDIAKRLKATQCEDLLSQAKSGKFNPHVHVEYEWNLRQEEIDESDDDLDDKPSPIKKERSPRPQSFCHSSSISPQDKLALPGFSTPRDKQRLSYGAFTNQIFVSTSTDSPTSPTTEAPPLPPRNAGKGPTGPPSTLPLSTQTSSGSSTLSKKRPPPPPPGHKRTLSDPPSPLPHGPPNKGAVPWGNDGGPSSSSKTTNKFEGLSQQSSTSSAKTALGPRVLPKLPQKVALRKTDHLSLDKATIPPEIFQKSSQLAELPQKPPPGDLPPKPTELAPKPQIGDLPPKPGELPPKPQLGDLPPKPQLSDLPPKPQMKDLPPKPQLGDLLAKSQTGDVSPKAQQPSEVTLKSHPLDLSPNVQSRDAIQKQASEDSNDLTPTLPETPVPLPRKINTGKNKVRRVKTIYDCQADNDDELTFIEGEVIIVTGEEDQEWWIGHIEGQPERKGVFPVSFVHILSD

T2 sequence (P10145 whole entry): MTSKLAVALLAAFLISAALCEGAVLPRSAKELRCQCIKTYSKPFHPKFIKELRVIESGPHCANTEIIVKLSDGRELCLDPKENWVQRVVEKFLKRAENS
Melanocortin receptor 4, sequence (P32245 whole entry): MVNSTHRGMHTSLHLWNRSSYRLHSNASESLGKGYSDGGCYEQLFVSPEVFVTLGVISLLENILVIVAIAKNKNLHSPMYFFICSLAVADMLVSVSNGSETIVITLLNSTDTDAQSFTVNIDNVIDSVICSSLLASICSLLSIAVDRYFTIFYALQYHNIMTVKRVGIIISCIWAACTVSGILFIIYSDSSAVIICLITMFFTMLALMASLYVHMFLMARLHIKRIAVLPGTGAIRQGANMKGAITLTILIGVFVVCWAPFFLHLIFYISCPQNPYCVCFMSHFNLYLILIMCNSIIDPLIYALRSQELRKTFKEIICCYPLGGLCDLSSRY
Long-chain-fatty-acid--AMP ligase FadD28, sequence (P9WQ59 whole entry): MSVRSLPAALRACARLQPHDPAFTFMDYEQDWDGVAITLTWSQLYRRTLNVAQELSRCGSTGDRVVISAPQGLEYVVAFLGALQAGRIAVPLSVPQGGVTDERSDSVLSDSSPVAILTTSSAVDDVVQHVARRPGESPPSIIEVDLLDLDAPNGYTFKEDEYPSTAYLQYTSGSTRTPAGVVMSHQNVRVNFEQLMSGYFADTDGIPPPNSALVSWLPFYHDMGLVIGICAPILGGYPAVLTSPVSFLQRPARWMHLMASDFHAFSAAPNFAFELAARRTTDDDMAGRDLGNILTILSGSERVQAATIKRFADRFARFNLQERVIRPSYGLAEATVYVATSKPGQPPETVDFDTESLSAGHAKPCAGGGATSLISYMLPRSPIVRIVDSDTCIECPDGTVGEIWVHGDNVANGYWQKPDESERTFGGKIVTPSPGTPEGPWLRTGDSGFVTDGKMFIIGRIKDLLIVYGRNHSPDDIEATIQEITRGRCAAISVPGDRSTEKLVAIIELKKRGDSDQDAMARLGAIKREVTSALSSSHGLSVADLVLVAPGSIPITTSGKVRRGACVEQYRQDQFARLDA
Steroidogenic factor 1, sequence (Q13285 whole entry): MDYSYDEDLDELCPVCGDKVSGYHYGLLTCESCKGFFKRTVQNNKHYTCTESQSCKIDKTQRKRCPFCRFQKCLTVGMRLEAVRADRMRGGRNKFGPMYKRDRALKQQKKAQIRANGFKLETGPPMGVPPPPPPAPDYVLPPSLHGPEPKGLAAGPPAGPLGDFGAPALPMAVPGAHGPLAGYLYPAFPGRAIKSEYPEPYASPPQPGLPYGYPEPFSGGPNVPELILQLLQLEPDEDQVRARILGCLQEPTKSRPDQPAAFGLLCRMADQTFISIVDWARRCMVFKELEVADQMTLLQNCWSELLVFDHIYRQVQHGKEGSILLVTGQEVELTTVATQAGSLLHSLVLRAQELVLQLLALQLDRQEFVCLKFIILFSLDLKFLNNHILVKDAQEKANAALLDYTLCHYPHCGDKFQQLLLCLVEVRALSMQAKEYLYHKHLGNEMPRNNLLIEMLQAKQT
Paired box protein Pax-8, sequence (Q06710 whole entry): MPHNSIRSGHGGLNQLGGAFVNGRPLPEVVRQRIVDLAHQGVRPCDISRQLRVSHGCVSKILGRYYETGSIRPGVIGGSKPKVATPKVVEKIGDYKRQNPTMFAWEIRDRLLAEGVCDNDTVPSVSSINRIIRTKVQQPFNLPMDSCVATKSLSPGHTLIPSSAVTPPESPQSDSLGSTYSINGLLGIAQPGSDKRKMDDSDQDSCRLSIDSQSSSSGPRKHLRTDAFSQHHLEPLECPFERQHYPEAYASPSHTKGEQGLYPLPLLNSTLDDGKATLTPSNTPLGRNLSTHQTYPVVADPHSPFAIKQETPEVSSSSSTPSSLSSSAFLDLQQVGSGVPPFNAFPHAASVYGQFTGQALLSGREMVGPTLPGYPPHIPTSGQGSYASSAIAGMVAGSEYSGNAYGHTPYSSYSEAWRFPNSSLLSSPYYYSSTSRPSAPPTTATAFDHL
Melanin-concentrating hormone receptor 1, sequence (Q99705 whole entry): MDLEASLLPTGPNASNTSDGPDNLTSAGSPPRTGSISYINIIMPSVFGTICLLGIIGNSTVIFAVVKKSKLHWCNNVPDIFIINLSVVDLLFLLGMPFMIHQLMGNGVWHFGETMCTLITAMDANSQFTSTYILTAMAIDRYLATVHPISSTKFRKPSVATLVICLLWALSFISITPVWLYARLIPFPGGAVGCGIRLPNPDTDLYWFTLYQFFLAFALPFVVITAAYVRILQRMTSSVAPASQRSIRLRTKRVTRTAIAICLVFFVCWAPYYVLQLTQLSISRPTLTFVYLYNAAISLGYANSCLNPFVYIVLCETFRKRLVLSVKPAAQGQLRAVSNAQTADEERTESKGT
ADP-ribosylation factor GTPase-activating protein 1, sequence (Q62848 whole entry, the tested form may be a part): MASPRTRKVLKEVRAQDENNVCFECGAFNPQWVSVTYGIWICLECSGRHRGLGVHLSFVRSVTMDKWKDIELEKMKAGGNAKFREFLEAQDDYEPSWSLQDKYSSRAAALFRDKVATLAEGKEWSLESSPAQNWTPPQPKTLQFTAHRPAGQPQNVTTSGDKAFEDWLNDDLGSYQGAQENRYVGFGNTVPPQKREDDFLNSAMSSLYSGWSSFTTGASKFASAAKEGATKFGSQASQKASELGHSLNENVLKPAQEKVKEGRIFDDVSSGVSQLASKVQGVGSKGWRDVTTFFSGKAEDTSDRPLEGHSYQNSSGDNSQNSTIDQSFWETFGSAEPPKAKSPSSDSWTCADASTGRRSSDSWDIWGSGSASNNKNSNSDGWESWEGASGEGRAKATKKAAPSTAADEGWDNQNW
Aryl hydrocarbon receptor, sequence (P35869 whole entry): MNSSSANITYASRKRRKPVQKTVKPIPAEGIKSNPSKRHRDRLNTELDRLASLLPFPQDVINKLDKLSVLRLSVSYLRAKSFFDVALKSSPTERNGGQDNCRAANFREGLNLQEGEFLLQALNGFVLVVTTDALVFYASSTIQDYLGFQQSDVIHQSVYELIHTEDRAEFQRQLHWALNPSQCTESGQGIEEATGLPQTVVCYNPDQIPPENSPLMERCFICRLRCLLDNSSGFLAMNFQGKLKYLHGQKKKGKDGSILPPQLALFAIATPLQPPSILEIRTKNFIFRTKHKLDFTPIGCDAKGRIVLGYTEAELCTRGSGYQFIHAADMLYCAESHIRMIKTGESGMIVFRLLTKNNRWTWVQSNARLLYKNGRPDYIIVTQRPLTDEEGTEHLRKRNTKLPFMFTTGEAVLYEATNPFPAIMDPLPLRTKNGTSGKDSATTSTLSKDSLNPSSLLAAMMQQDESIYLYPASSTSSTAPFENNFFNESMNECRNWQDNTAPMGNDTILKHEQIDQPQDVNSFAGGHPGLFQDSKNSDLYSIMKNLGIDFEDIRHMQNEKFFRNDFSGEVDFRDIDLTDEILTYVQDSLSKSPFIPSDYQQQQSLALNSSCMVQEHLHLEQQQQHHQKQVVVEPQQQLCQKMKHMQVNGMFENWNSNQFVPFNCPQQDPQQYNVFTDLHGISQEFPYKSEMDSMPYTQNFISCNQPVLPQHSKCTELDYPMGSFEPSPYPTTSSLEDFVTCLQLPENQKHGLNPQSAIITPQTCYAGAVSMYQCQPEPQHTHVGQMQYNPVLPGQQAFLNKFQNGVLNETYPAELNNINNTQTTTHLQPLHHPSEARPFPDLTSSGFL
Neuropeptides B/W receptor type 1, sequence (P48145 whole entry): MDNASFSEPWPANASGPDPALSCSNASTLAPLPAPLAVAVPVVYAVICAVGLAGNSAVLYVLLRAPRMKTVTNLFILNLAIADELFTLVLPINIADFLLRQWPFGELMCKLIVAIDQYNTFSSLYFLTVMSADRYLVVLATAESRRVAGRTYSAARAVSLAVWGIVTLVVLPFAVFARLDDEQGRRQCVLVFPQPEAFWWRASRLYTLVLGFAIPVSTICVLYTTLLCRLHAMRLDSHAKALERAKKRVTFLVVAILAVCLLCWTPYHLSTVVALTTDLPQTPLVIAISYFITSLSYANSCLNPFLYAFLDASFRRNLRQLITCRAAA

## Cc1cc2nc(N)sc2cc1C
[1]
  AC50: 10 µM (inconclusive)

## CO[C@@H]1CS(=O)(=O)C2C(c3ccc(F)cc3)=NOC21 (stereo partly specified)
[2]
  EC50: > 100 µM (inactive)

## CCN1CCN(Cc2ccc(NC(=O)c3ccc(C)c(NC(=O)C(=O)c4c[nH]c5ccccc45)c3)cc2C(F)(F)F)CC1
[3]
  EC50: 7.65 µM (active)
Interleukin-8 [4]
  IC50: 39.7 µM (inactive)
[5]
  EC50: 4.28 µM (active)
[6]
  AC50: 11.3 µM (active)
Interleukin-8 [7]
  IC50: 2.27 µM (active)
Paired box protein Pax-8
  AC50: 12.1 µM (active)
[8]
  EC50: 4.17 µM (inconclusive)
INS1
  AC50: 7.69 µM (active)
Melanocortin receptor 4
  EC50: > 89.2 µM (inactive)
[9]
  AC50: 14.1 µM (active)
[10]
  IC50: > 20 µM (inactive)
[11]
  AC50: 12 µM (active)
[12]
  AC50: 8.7 µM (active)
Streptococcus
  EC50: 7.74 µM (active)
[13]
  EC50: 5.83 µM (active)
[14]
  AC50: 68 µM (active)
Streptokinase A
  EC50: > 150 µM (not active)

## COc1ccc(Oc2c(Cl)cnn(CC(=O)N(C3CCCCC3)C3CCCCC3)c2=O)cc1
[15]
  IC50: 15.7 µM (inactive)
[16]
  IC50: > 20 µM (inactive)

## COc1ccc(CCNC(=O)CSc2nc3nc(O)cc(O)c3s2)cc1
[17]
  IC50: 35.9 µM (inactive)
Steroidogenic factor 1
  IC50: 6.9 µM (active)
[18]
  IC50: 97.8 µM (inactive)

## CN(Cc1ccccc1F)C(=O)CN1c2cccc3cccc(c23)S1(=O)=O
[19]
  IC50: 47.1 µM (inactive)
[20]
  IC50: 41 µM (inactive)
